The source of these data is patent publication US8536168B2 (Novartis AG, priority 2007, dated 2013).

Like-named read-outs stand apart in the source and are kept apart here.

In general, IC50 refers to the concentration that inhibits the measured activity by half.

One experiment concerns Gli-luciferase activity. In words: Reporter gene assay (RGA) in TMHh12 cells, antagonism of Gli-luciferase activity in the presence of a Smo agonist. The experiment is classed as cell-based. As for the experimental part:
Activity of the compounds was evaluated using a reporter gene assay (RGA) in TMHh12 cells.
In general terms: In a reporter assay the amount or activity of a reporter protein is the signal.

Experiment [1] deals with human Smoothened receptor (Homo sapiens, UniProt Q99835). The experiment can be described thus: Smo binding assay, displacement of radio-labeled smoothened agonist, filter binding format (human). To be noted: displacement of small molecule agonist of Smoothened, read-out: Human Smo bdg., IC50. An excerpt: A Smo binding assay was developed using radio-labeled smoothened agonist for compound competition. Table 9 lists the IC50 for displacement of a small molecule agonist of Smoothened determined in a filter binding format for the mouse and human Smoothened receptor.

Experiment [2] has as its target mouse Smoothened receptor (Mus musculus, UniProt P56726). The experiment can be described thus: Smo binding assay, displacement of radio-labeled smoothened agonist, filter binding format (mouse). To be noted: displacement of small molecule agonist of Smoothened, read-out: Mouse Smo bdg., IC50. The text has this:
A Smo binding assay was developed using radio-labeled smoothened agonist for compound competition.

[3] abbreviates: 25 nM small molecule Smo agonist, read-out: RGA (25 nM Smo agonist) IC50.
The mark [4] stands for this setting: read-out: RGA (1 nM Smo agonist) IC50, 1 nM small molecule Smo agonist.

Sequence of human Smoothened receptor (Q99835 28-787): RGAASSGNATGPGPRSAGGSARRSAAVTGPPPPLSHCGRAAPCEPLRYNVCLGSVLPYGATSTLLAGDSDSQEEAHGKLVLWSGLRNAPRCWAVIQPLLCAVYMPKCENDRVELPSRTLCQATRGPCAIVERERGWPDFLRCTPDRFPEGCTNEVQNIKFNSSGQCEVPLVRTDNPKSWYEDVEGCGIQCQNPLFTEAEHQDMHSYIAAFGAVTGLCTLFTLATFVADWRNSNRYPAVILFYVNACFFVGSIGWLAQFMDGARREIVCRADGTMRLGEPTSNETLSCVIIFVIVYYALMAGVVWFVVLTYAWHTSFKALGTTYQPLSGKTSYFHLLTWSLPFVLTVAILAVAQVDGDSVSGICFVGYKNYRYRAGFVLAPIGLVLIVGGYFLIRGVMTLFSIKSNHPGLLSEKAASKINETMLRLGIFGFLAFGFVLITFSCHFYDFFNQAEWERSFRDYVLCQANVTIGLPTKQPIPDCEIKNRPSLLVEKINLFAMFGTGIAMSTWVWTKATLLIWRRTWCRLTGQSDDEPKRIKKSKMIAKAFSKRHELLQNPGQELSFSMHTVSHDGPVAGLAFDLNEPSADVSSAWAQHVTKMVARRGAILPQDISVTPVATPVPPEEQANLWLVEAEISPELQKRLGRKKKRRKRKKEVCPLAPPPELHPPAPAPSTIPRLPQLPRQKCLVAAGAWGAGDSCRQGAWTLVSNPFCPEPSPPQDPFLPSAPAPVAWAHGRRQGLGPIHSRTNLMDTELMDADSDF
Sequence of mouse Smoothened receptor (P56726 33-793): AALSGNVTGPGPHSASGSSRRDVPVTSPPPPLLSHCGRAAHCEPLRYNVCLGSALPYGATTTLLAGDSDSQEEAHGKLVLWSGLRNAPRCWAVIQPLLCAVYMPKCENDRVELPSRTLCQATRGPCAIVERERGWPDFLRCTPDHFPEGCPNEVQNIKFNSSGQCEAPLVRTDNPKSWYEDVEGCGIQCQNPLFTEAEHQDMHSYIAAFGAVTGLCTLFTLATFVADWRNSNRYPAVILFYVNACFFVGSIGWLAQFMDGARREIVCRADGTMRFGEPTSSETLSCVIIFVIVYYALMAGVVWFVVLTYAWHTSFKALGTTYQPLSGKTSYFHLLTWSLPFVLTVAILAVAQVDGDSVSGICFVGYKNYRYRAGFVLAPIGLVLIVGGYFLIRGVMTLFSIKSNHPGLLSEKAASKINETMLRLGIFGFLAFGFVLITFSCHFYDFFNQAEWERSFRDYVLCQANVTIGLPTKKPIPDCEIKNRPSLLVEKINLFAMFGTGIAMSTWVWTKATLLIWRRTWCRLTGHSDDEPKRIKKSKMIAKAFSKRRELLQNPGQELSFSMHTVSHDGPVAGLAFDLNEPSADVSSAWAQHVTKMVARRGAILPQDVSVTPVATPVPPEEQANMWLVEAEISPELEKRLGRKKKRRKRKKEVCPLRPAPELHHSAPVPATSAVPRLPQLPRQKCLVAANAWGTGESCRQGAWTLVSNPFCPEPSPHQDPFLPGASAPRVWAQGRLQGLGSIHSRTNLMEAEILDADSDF

As for `CN(C)C(=O)Nc1ccc(N2CCN(c3nnc(Cc4ccccc4)c4ccccc34)CC2)nc1` [Example 238, 3-{6-[4-(4-Benzyl-phthalazin-1-yl)-piperazin-1-yl]-pyridin-3-yl}-1,1-dimethyl-urea], the concentration for half-maximal inhibition (IC50) in the experiment on Gli-luciferase activity (setting [3]) was 0.1 to 1 µM; in the experiment with Gli-luciferase activity (setting [4]), below 0.1 µM; in experiment [1] it was 0.1 to 1 µM; in experiment [2], 0.1 to 1 µM.

`CC(=O)NCc1ccc(N2CCN(c3nnc(Cc4ccccc4)c4ccccc34)CC2)nc1` [Example 70, N-{6-[4-(4-Benzyl-phthalazin-1-yl)-piperazin-1-yl]-pyridin-3-ylmethyl}-acetamide]: the half-maximal inhibitory concentration (IC50) in the experiment with Gli-luciferase activity (setting [3]) was 0.1 to 1 µM; in the experiment on Gli-luciferase activity (setting [4]) it was below 0.1 µM; in experiment [1] it was 0.1 to 1 µM; in experiment [2], 0.1 to 1 µM.

`c1ccc(Cc2nnc(N3CCN(c4ccc(CNC5COC5)cn4)CC3)c3ccccc23)cc1` [Example 230]: the IC50 with Gli-luciferase activity (setting [3]) was 0.1 to 1 µM; in the experiment with Gli-luciferase activity (setting [4]) it was below 0.1 µM; in experiment [1], 0.1 to 1 µM; in experiment [2] it was 0.1 to 1 µM.

For `FC1(F)CN(Cc2ccc(N3CCN(c4nnc(Cc5ccccc5)c5ccccc45)CC3)nc2)C1` [Example 229], the IC50 in the experiment on Gli-luciferase activity (setting [3]) was 0.1 to 1 µM; with Gli-luciferase activity (setting [4]) it was 0.1 to 1 µM; in experiment [1], below 0.1 µM; in experiment [2] it was below 0.1 µM.

For the compound `N#Cc1ccc(N2CCN(c3nnc(Cc4ccc(Cl)c(C(F)(F)F)c4)c4ccccc34)CC2)nc1` [Example 178], the IC50 (in the experiment on Gli-luciferase activity (setting [3]); with Gli-luciferase activity (setting [4]); in experiment [1]; in experiment [2]) was 0.1 to 1 µM each time.

With `CN(C)C(=O)c1cnc(N2CCN(c3nnc(Cc4ccccc4)c4ccccc34)CC2)nc1` [Example 54aa], the half-inhibitory concentration (IC50) is 0.1 to 1 µM with Gli-luciferase activity (setting [3]), below 0.1 µM with Gli-luciferase activity (setting [4]), 0.1 to 1 µM in experiment [1] and 0.1 to 1 µM in experiment [2].

`CCOC(=O)c1ccc(N2CCN(c3nnc(Cc4ccccc4)c4ccccc34)CC2)nc1` [Example 54]: the concentration for half-maximal inhibition (IC50) with Gli-luciferase activity (setting [3]) is 0.1 to 1 µM; in the experiment with Gli-luciferase activity (setting [4]) it was below 0.1 µM; in experiment [1], below 0.1 µM; in experiment [2], below 0.1 µM.

For `C[C@@H]1CN(c2nnc(Cc3ccccc3)c3ccccc23)CCN1c1ccc(C#N)cn1` [Example 142, 6-[(R)-4-(4-Benzyl-phthalazin-1-yl)-2-methyl-piperazin-1-yl]-nicotinonitrile], the half-maximal inhibitory concentration (IC50) in the experiment with Gli-luciferase activity (setting [3]) was 0.1 to 1 µM; in the experiment with Gli-luciferase activity (setting [4]) it was below 0.1 µM; in experiment [1], below 0.1 µM; in experiment [2], below 0.1 µM.

For the compound `CC(C)(C)OC(=O)NC1CN(C(=O)c2ccc(N3CCN(c4nnc(Cc5ccccc5)c5ccccc45)CC3)nc2)C1` [Example 54v], the IC50 in the experiment with Gli-luciferase activity (setting [3]) lay within 1 to 10 µM; in the experiment with Gli-luciferase activity (setting [4]), 0.1 to 1 µM; in experiment [1], 0.1 to 1 µM; in experiment [2], 0.1 to 1 µM.

As to `C[C@@H]1CN(c2nnc(Cc3ccccc3)c3ccccc23)[C@@H](C)CN1c1ccc(C#N)cn1` [Example 119], the IC50 fell in the range of 1 to 10 µM with Gli-luciferase activity (setting [3]), 0.1 to 1 µM in the experiment on Gli-luciferase activity (setting [4]), 0.1 to 1 µM in experiment [1] and 0.1 to 1 µM in experiment [2].

As to `FC(F)(F)c1ccc(N2CCN(c3nnc(Cc4ccccc4)c4c3C=CCC4)CC2)nc1` [Example 240, 4-Benzyl-1-(4-(5-(trifluoromethyl)pyridin-2-yl)piperazin-1-yl)-5,6-dihydrophthalazine], the concentration for half-maximal inhibition (IC50) in the experiment with Gli-luciferase activity (setting [3]) is 0.1 to 1 µM; with Gli-luciferase activity (setting [4]), 0.1 to 1 µM; in experiment [1], below 0.1 µM; in experiment [2], below 0.1 µM.

Turning to `O=S(=O)(c1ccc(N2CCN(c3nnc(Cc4ccccc4)c4ccccc34)CC2)nc1)N1CCCC1` [Example 133], the IC50 was 0.1 to 1 µM in the experiment with Gli-luciferase activity (setting [3]), below 0.1 µM in the experiment on Gli-luciferase activity (setting [4]), 0.1 to 1 µM in experiment [1] and 0.1 to 1 µM in experiment [2].

`CC(C)CC(=O)NCc1ccc(N2CCN(c3nnc(Cc4ccccc4)c4ccccc34)CC2)nc1` [Example 210]: the IC50 (in the experiment on Gli-luciferase activity (setting [3]); in the experiment on Gli-luciferase activity (setting [4]); in experiment [1]; in experiment [2]) was below 0.1 µM each time.

As to `CC(C)(O)c1ccc(N2CCN(c3nnc(Cc4ccccc4Cl)c4ccccc34)CC2)nc1` [Example 192], the IC50 was 0.1 to 1 µM with Gli-luciferase activity (setting [3]), below 0.1 µM in the experiment with Gli-luciferase activity (setting [4]), below 0.1 µM in experiment [1] and below 0.1 µM in experiment [2].

As to `CN(C)CC(C)(O)c1cnc(N2CCN(c3nnc(Cc4ccccc4)c4ccccc34)CC2)cn1` (centres unmarked) [Example 169, 2-[4-(4-Benzyl-phthalazin-1-yl)-3,4,5,6-tetrahydro-2H-[1,2′]bipyrazinyl-5′-yl]-1-dimethylamino-propan-2-ol], the 50% inhibitory concentration (IC50) is 0.1 to 1 µM in the experiment on Gli-luciferase activity (setting [3]), below 0.1 µM in the experiment with Gli-luciferase activity (setting [4]), below 0.1 µM in experiment [1] and below 0.1 µM in experiment [2].

Take `CCOC(=O)c1ccc(N2CCN(c3nnc(Cc4ccccc4Cl)c4ccccc34)[C@@H](C)C2)nc1` [Example 188]: the IC50 was 0.1 to 1 µM in the experiment on Gli-luciferase activity (setting [3]), below 0.1 µM with Gli-luciferase activity (setting [4]), below 0.1 µM in experiment [1] and below 0.1 µM in experiment [2].

`c1ccc(Cc2nnc(N3CCN(c4ccc(CN(C5COC5)C5COC5)cn4)CC3)c3ccccc23)cc1` [Example 231]: the IC50 (in the experiment on Gli-luciferase activity (setting [3]); with Gli-luciferase activity (setting [4]); in experiment [1]; in experiment [2]) was below 0.1 µM throughout.

For `COC(=O)c1cnc(N2CCN(c3nnc(Cc4ccccc4)c4ccccc34)CC2)cc1C(F)(F)F` [Example 136], the IC50 in the experiment with Gli-luciferase activity (setting [3]) was 0.1 to 1 µM; with Gli-luciferase activity (setting [4]), below 0.1 µM; in experiment [1], below 0.1 µM; in experiment [2], below 0.1 µM.

Consider `FC(F)(F)c1ccc(N2CCN(c3nnc(Cc4ccccc4)c4ccccc34)CC2)cc1` [Example 55, 1-Benzyl-4-[4-(4-trifluoromethyl-phenyl)-piperazin-1-yl]-phthalazine], for which the IC50 in the experiment on Gli-luciferase activity (setting [3]) was in the range of 1 to 10 µM; in the experiment with Gli-luciferase activity (setting [4]), 0.1 to 1 µM; in experiment [1], 0.1 to 1 µM; in experiment [2], 0.1 to 1 µM.

`OC(c1ccc(N2CCN(c3nnc(Cc4ccccc4)c4ccccc34)CC2)nc1)C1CC1` (centres unmarked) [Example 219]: the IC50 with Gli-luciferase activity (setting [3]) was 0.1 to 1 µM; in the experiment on Gli-luciferase activity (setting [4]) it was 0.1 to 1 µM; in experiment [1] it was below 0.1 µM; in experiment [2] it was below 0.1 µM.

Turning to `N#Cc1ccc(N2CCN(c3nnc(Cc4ccc5ccccc5c4)c4ccccc34)CC2)nc1` [Example 62], the IC50 is 1 to 10 µM in the experiment on Gli-luciferase activity (setting [3]), below 0.1 µM with Gli-luciferase activity (setting [4]), below 0.1 µM in experiment [1] and below 0.1 µM in experiment [2].

Regarding `CC(=O)NCc1ccc(N2CCN(c3nnc(Cc4ccccc4)c4ccccc34)[C@@H](C)C2)nc1` [Example 216], the IC50 (in the experiment with Gli-luciferase activity (setting [3]); with Gli-luciferase activity (setting [4]); in experiment [1]; in experiment [2]) was below 0.1 µM in each case.

With `CC(c1ccccc1)c1nnc(N2CCN(c3ccc(C#N)cn3)CC2)c2ccccc12` (centres unmarked) [Example 68], the IC50 with Gli-luciferase activity (setting [3]) fell in the range of 1 to 10 µM; in the experiment on Gli-luciferase activity (setting [4]), 0.1 to 1 µM; in experiment [1], 1 to 10 µM; in experiment [2] it was 1 to 10 µM.

For `COC(=O)c1ccc(N2CCN(c3nnc(Cc4ccccc4)c4ccccc34)CC2)nn1` [Example 139], the IC50 with Gli-luciferase activity (setting [3]) is 1 to 10 µM; with Gli-luciferase activity (setting [4]) it was 0.1 to 1 µM; in experiment [1] it was below 0.1 µM; in experiment [2] it was below 0.1 µM.

On to `O=C(c1ccc(N2CCN(c3nnc(Cc4ccccc4)c4ccccc34)CC2)nc1)N1CC[S+]([O-])C1` (centres unmarked) [Example 54q], for which the IC50 in the experiment on Gli-luciferase activity (setting [3]) was 0.1 to 1 µM; with Gli-luciferase activity (setting [4]) it was below 0.1 µM; in experiment [1] it was 0.1 to 1 µM; in experiment [2], 0.1 to 1 µM.

For `CC(C)(O)CNC(=O)c1ccc(N2CCN(c3nnc(Cc4ccccc4)c4ccccc34)CC2)nc1` [Example 54u], the IC50 is 0.1 to 1 µM in the experiment on Gli-luciferase activity (setting [3]), below 0.1 µM in the experiment with Gli-luciferase activity (setting [4]), 0.1 to 1 µM in experiment [1] and below 0.1 µM in experiment [2].

As for `CC(C)CC(=O)NCc1ccc(N2CCN(c3nnc(Cc4ccccc4)c4ccccc34)CC2)cc1` [Example 78c], the IC50 (with Gli-luciferase activity (setting [3]); in the experiment with Gli-luciferase activity (setting [4]); in experiment [1]; in experiment [2]) was below 0.1 µM in each case.

For the compound `Cc1c(N2CCN(c3ccc(C(F)(F)F)cn3)CC2)nnc(Cc2ccccc2)c1CNCc1ccccc1` [Example 242, N-benzyl-1-(3-benzyl-5-methyl-6-(4-(5-(trifluoromethyl)pyridin-2-yl)piperazin-1-yl)pyridazin-4-yl)methanamine], the IC50 (with Gli-luciferase activity (setting [3]); with Gli-luciferase activity (setting [4]); in experiment [1]; in experiment [2]) was 1 to 10 µM each time.

For `Cc1cc(Cc2ccccc2)nnc1N1CCN(c2ccc(C#N)cn2)CC1` [Example 86], the IC50 in the experiment with Gli-luciferase activity (setting [3]) fell in the range of 1 to 10 µM; with Gli-luciferase activity (setting [4]), 0.1 to 1 µM; in experiment [1], 1 to 10 µM; in experiment [2], 1 to 10 µM.

Turning to `CC(C)(O)Cc1ccc(N2CCN(c3nnc(Cc4ccccc4)c4ccccc34)CC2)nc1` [Example 172, 1-{6-[4-(4-Benzyl-phthalazin-1-yl)-piperazin-1-yl]-pyridin-3-yl}-2-methyl-propan-2-ol], the IC50 (in the experiment on Gli-luciferase activity (setting [3]); in the experiment on Gli-luciferase activity (setting [4]); in experiment [1]; in experiment [2]) was below 0.1 µM each time.

Turning to `Cc1ccc(Cc2nnc(N3CCN(c4ccc(C#N)cn4)CC3)c3ccccc23)cc1` [Example 173], the IC50 was 0.1 to 1 µM in the experiment with Gli-luciferase activity (setting [3]), below 0.1 µM in the experiment with Gli-luciferase activity (setting [4]), below 0.1 µM in experiment [1] and below 0.1 µM in experiment [2].

`CC(C)n1cc2c(Cc3ccccc3)nnc(N3CCN(c4ccc(C(F)(F)F)cn4)CC3)c2c1` [Example 244, 1-benzyl-6-isopropyl-4-(4-(5-(trifluoromethyl)pyridin-2-yl)piperazin-1-yl)-6H-pyrrolo[3,4-d]pyridazine]: the IC50 in the experiment on Gli-luciferase activity (setting [3]) lay within 1 to 10 µM; in the experiment on Gli-luciferase activity (setting [4]) it was 1 to 10 µM; in experiment [1] it was 0.1 to 1 µM; in experiment [2], 0.1 to 1 µM.
